Reference: US6855719B1, “Imidazo[1,2-A]pyridine and pyrazolo[2,3-A]pyridine derivatives” (AstraZeneca AB, priority 1999, dated 2005)

Target: T1, CDK2/Cyclin E (Homo sapiens, UniProt P24941)
T1 construct: The open reading frames of CDK2 and Cyclin E were isolated by reverse transcriptase-PCR; made in house; host or cells: Sf21 (Spodoptera frugiperda) insect cells, baculovirus co-infection; GST-Rb substrate made in E. coli BL21 (DE3) pLysS
Assay: in vitro kinase assay (Scintillation Proximity Assay), incorporation of [γ-33-P]-ATP into GST-Rb
Assay type: biochemical
Settings: CDK2/Cyclin E partially-purified enzyme, GST-Rb substrate, 0.2 μM ATP, 60 minutes room temperature; read-out: CDK2 inhibitory activity IC50
Method: The compounds were tested in an in vitro kinase assay in 96 well format using Scintillation Proximity Assay (SPA—obtained from Amersham) for measuring incorporation of [γ-33-P]-Adenosine Triphosphate into a test substrate (GST-Retinoblastoma protein; GST-Rb). In each well was placed the compound to be tested (diluted in DMSO and water to correct concentrations) and in control wells either roscovitine as an inhibitor control or DMSO as a […] control.
Approximately 0.2 μl of CDK2/Cyclin E partially-purified enzyme (amount dependent on enzyme activity) diluted in 25 μl incubation buffer was added to each well then 20 μl of GST-Rb/ATP/ATP33 mixture (containing 0.5 μg GST-Rb and 0.2 μM ATP and 0.14 μCi [γ-33-P]-Adenosine Triphosphate in incubation buffer), and the resulting mixture shaken gently, then incubated at room temperature for 60 minutes. […]
The plates were sealed with Topseal-S plate sealers, left for two hours then spun at 2500 rpm, 1124× g., for 5 minutes. The plates were read on a Topcount for 30 seconds per well. […]
The open reading frames of CDK2 and Cyclin E were isolated by reverse transcriptase-PCR using HeLa cell and activated T cell mRNA as a template and cloned into the insect expression vector pVL1393 (obtained from Invitrogen 1995 catalogue number. V1392-20). […]

Row | IC50 | Compound
1 | 190 nM | O=S(=O)(c1ccc(Nc2nccc(-c3cnc4ccccn34)n2)cc1)N1COCOC1 [Example 11, 2-[4-(3,5-Dioxapiperidin-1-yl)sulphonylanilino]-4-(imidazo[1,2a]pyrid-3-yl)pyrimidine]
2 | 170 nM | CCN(CC)CCOc1ccc(Nc2nccc(-c3cnc4ccccn34)n2)cc1 [Example 12, 2-[4-(2-Diethylaminoethoxy)anilino]-4-(imidazo[1,2a]pyrid-3-yl)pyrimidine]
